Results reported in article PMC11653702, “Targeting the SPC25/RIOK1/MYH9 Axis to Overcome Tumor Stemness and Platinum Resistance in Epithelial Ovarian Cancer” (Advanced Science, 2024).
Several values for one entry are separate records, joined by “and”; a condition that tells them apart may be missing. Equal values may be shown once.

Columns and labels:
Format in all cases: in vivo, human EOC cells in BALB/c-Nude mice
[1] = tested on: OVCAR3 xenografted tumor tissues; assay: TUNEL assay in intraperitoneal xenografted tumor tissues, OVCAR3; details: for TUNEL+ cell (%): CDDP-treated mice, #1-#6
Description: (§1) In the intraperitoneal tumor model, 1 × 10^6 of the indicated cells stably expressing luciferase were injected intraperitoneally into the mice. Treatment with saline (Vehicle), CDDP (5 mg/kg, 3 times per week for 1 week), CBP1 (10 mg/kg, once in 2 days), or a combination of CDDP (5 mg/kg, 3 times per week for 1 week) and CBP1 (10 mg/kg, once in 2 days) was initiated when the bioluminescence signal reached 2 × 10^7 p/s/cm^2/sr for 6 weeks of continuous treatment cycles. The mice were sacrificed when they became moribund, as determined by an observer blinded to the treatment. Finally, their tumors were excised for qRT‐PCR and Western blotting.
TUNEL Assay: The TUNEL staining procedure was conducted on the DeadEnd Fluorometric TUNEL System (#G3250; Promega), according to the manufacturer’s instructions. In brief, paraffin-embedded sections were baked at 65°C for 60 min, followed by three washes in a xylene bath. The sections were then washed in a series of absolute ethanol, 95% ethanol, and 70% ethanol, and finally, in PBS. Then, each section was treated with proteinase K at 37°C for 30 min and washed three times with PBS. Thereafter, the sections were incubated with […] (containing Biotin-11-dUTP and TdT Enzyme) at 37 ℃ for 1 h in the dark, followed by three PBS washes. The samples were subsequently incubated with streptavidin–fluorescein at 37 ℃ for 30 min in the dark, followed by three washes with PBS. DAPI was used to stain the nucleus. Finally, the experimental outcomes were observed under a fluorescence microscope, and the percentages of TUNEL-positive cells were quantified from 10 randomly selected fields.

[2] = tested on: OVCAR8 cells; assay: Survival of intraperitoneal tumor-bearing nude mice, OVCAR8; set-up: key to Survival status: 0: Alive; 1: Dead; details: for Survival status / Survival time (Days after CDDP treatment): Balb/c Nude mice; for Survival time (Days after CDDP treatment): >= means alive at this day
From the text: (§2) Subsequently, we selected 4 representative EOC cell lines (Figure S1F,G, Supporting Information) and validated the role of SPC25 in mediating platinum resistance in EOC through a series of in vitro and in vivo experiments. […] To further establish an EOC mouse model, we intraperitoneally injected BALB/c‐Nude mice with EOC cells with stable luciferase expression. CDDP treatment (three times per week, a week as a cycle) was initiated when the bioluminescence signal reached 2 × 10^7 p/s/cm^2/sr.
as §1

[3] = tested on: OVCAR8 cells; assay: Intraperitoneal tumor model, bioluminescence, OVCAR8; details: SPC25-silenced OVCAR8, CDDP
From the text: as §2, §1

[NH2][Pt]([NH2])([Cl])[Cl] [CDDP, cisplatin]
TUNEL+ cell (%) ([1]; OVCAR3 SPC25-overexpressing): 8.84% and 3.44% and 6.27% and 4.43% and 7.25% and 8.02% | TUNEL+ cell (%) ([1]; OVCAR3 Vector): 31.16% and 27.27% and 21.88% and 26.01% and 32.74% and 29.56% | TUNEL-positive cells ([1]; SPC25-overexpressing OVCAR3, CDDP): reduced number | Survival status ([2]; at the day of E151, animal 1): 1 | Survival status ([2]; at the day of E152, animal 2): 1 | Survival status ([2]; at the day of E153, animal 3): 1 | Survival status ([2]; at the day of E154, animal 4): 1 | Survival status ([2]; at the day of E155, animal 5): 1 | Survival status ([2]; at the day of E156, animal 6): 1 | Survival status ([2]; at the day of E157, animal 7): 1 | Survival time (Days after CDDP treatment) ([2]; animal 1): 59 days | Survival time (Days after CDDP treatment) ([2]; animal 2): 50 days | Survival time (Days after CDDP treatment) ([2]; animal 3): 52 days | Survival time (Days after CDDP treatment) ([2]; animal 4): 56 days | Survival time (Days after CDDP treatment) ([2]; animal 5): 57 days | Survival time (Days after CDDP treatment) ([2]; animal 6): 60 days | Survival time (Days after CDDP treatment) ([2]; animal 7): 61 days | Survival, days after CDDP treatment ([2]; OVCAR8 sh-SPC25#1, status 0, individual mice): 63 days and 79 days and 89 days | Survival, days after CDDP treatment ([2]; OVCAR8 sh-SPC25#1, status 1, individual mice): 72 days and 59 days and 60 days | Survival, days after CDDP treatment ([2]; OVCAR8 sh-Scramble, status 1, individual mice): 54 days and 50 days and 55 days and 53 days and 57 days | CDDP sensitivity, apoptotic index and survival [3]: increase in CDDP sensitivity and apoptotic index, as well as prolonged survival
